Results taken from US10894777B2, “TG2 inhibitor piperazine compounds and uses thereof” (UNIVERSITY OF OTTAWA, priority 2016, dated 2021).

Assays:
TG2 [1] = biological target: T1, TG2 (Homo sapiens, UniProt P21980); experiment: Kinetic inactivation of purified recombinant human TG2, continuous spectrophotometric activity assay (Examples 3, 10); assay type: biochemical; design: made in house; settings: Table 4; for kinact/KI: read-out: kinact/Ki (μM^−1 min^−1), for ^a no saturation observed, efficiency obtained from initial slope
T1 sequence (P21980 1-687): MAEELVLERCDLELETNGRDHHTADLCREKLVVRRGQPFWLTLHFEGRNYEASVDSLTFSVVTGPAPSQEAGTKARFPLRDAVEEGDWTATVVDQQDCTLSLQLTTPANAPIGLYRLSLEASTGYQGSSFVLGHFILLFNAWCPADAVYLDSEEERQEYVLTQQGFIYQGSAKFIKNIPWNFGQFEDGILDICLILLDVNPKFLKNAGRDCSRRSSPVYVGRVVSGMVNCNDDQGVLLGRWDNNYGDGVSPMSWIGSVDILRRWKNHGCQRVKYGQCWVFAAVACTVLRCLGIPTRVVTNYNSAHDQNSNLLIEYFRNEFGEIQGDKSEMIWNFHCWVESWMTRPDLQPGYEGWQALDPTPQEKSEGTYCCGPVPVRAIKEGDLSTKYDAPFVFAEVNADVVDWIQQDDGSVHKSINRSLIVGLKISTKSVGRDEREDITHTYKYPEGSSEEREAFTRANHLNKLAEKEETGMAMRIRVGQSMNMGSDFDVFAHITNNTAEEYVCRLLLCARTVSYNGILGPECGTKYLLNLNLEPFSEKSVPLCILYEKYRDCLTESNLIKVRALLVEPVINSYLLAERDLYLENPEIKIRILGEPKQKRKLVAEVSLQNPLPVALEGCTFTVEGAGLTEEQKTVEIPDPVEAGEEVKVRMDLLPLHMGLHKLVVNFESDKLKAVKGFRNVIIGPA
Description: Kinetic studies were carried out in vitro, using purified recombinant human TG2 (Roy, I. et al., Protein Expr. Purif. 87: 41-46, 2013) and a direct, continuous spectrophotometric activity assay (Leblanc, A. et al., Biochemistry 40: 8335-8342, 2001).
Kinetics. Kinetic runs were performed at 25° C. in 100 mM MOPS buffer (pH 7.0) containing 3 mM CaCl2 and 50 μM EDTA. […] Stock solutions of the substrate and inhibitors were prepared in DMF such that the final concentration of this co-solvent was constant at 10% v/v. Reactions were initiated with the addition of enzyme with an activity of approximately 0.05 U/mL. Kinetic evaluation was carried out by the method of Stone and Hofsteenge (Stone, S. R. and Hofsteenge, J., Biochem. J. 230: 497-502, 1985). […] Observed first-order rate constants of inactivation were determined from non-linear regression, to a mono-exponential model. These rate constants were in turn fit to equation 1 by non-linear regression, providing the kinetic parameters
Kinetic parameters were determined as described above.

TG2 [2] = biological target: T1, TG2; experiment: Colorimetric transamidase activity assay (AL5 substrate), hTG2; assay type: biochemical; settings: for kinact/KI: read-out: kinact/KI (10^3M^−1 min^−1); for enzyme inactivation, relative observed rate constants (kobs): high concentration of inhibitor (18 μM, FIG. 43)
Description: In Vitro Assays. Colorimetric transamidase activity assay. The activities of hTG1, hTG2 and hTG6 were measured via a colorimetric assay using the chromogenic substrate Cbz-Glu(γ-p-nitrophenyl ester)Gly (AL5). The assay was conducted at 25° C. in 100 mM MOPS buffer (pH 6.5) containing 3.0 mM CaCl2 and 50 μM EDTA. […] A stock solution of AL5 was prepared in DMSO such that the final concentration of this co-solvent was constant at 2.5% v/v. Stock solutions of the inhibitors were made in the buffer system previously described. The reaction was initiated with the addition of 40-60 mU/mL of the respective enzyme (0.10 μM hTG1, 0.25 μM hTG2 or 0.32 μM hTG6). Product formation was monitored at 405 nm in a polystyrene 96-well microplate using a BioTek Synergy 4 plate reader. […] Observed first-order rate constants of inactivation (kobs) were determined from non-linear regression fit to a mono-exponential model (Equation 1) of the observed absorbance of the enzymatic hydrolysis product, p-nitrophenolate (pNP). […] Experiments were done in triplicate and variation between repeats was less than 30%.

[3] = Table 8, read-out: kinact (converted)
[4] = Table 5, read-out: kinact (converted)
[5] = Table 7, read-out: kinact (converted)

Row | Compound | kinact (TG2 [1]) [s⁻¹] | kinact/KI (TG2 [1]) [M⁻¹ s⁻¹] | melting point [°C] | kinact (TG2 [2]; [5]) [s⁻¹] | kinact/KI (TG2 [2]; Table 7) [M⁻¹ s⁻¹] | also measured
1 | C=CC(=O)NCCCC[C@H](NC(=O)OCc1ccccc1)C(=O)N1CCN(C(=O)c2ccc3ccccc3c2)CC1 [AA10, (S)-benzyl(1-(4-(2-naphthoyl)piperazin-1-yl)-6-acrylamido-1-oxohexan-2-yl)carbamate] | 0.0202 | 4000 |  |  |  | kinact (TG2 [2]; [3]): 0.0202 s⁻¹; kinact/KI (TG2 [2]; Table 8): 1500 M⁻¹ s⁻¹
2 | C=CC(=O)NCCCC[C@H](NC(=O)OCc1ccccc1)C(=O)NCCCCNS(=O)(=O)c1cccc2c(N(C)C)cccc12 [Compound 109, (S)-benzyl (6-acrylamido-1-((4-(5-(dimethylamino)naphthalene-1-sulfonamido)butyl)amino)-1-oxohexan-2-yl)carbamate] |  | 883 | 54 to 56 |  |  | kinact (TG2 [2]; [4]): 0.0365 s⁻¹; kinact/KI (TG2 [2]; Table 5): 1350 M⁻¹ s⁻¹
3 | C=CC(=O)NCCCC[C@H](NC(=O)OCc1ccccc1)C(=O)NCCCNS(=O)(=O)c1cccc2c(N(C)C)cccc12 [Compound 110, (S)-benzyl (6-acrylamido-1-((3-(5-(dimethylamino)naphthalene-1-sulfonamido)propyl)amino)-1-oxohexan-2-yl)carbamate] |  | 783 | 65 to 67 |  |  | kinact (TG2 [2]; [4]): 0.0142 s⁻¹; kinact/KI (TG2 [2]; Table 5): 460 M⁻¹ s⁻¹
4 | C=CC(=O)NCCCC[C@H](NC(=O)OCc1ccccc1)C(=O)NCCNS(=O)(=O)c1cccc2c(N(C)C)cccc12 [Compound 111, (S)-benzyl (6-acrylamido-1-((2-(5-(dimethylamino)naphthalene-1-sulfonamido)ethyl)amino)-1-oxohexan-2-yl)carbamate] | 0.0242 | 1030 |  |  |  | kinact (TG2 [2]; [4]): 0.0242 s⁻¹; kinact/KI (TG2 [2]; Table 5): 1020 M⁻¹ s⁻¹
5 | C=CC(=O)NC[C@H](NC(=O)OCc1ccccc1)C(=O)N1CCN(S(=O)(=O)c2cccc3c(N(C)C)cccc23)CC1 [Compound 115, (S)-benzyl (3-acrylamido-1-(4-((5-(dimethylamino)naphthalen-1-yl)sulfonyl)piperazin-1-yl)-1-oxopropan-2-yl)carbamate] |  |  |  |  |  | enzyme inactivation, relative observed rate constants (kobs) (TG2 [2]): no significant enzyme inactivation was observed
6 | C=CC(=O)NCC[C@H](NC(=O)OCc1ccccc1)C(=O)N1CCN(S(=O)(=O)c2cccc3c(N(C)C)cccc23)CC1 [Compound 116, (S)-benzyl (4-acrylamido-1-(4-((5-(dimethylamino)naphthalen-1-yl)sulfonyl)piperazin-1-yl)-1-oxobutan-2-yl)carbamate] |  |  |  |  |  | enzyme inactivation, relative observed rate constants (kobs) (TG2 [2]): no significant enzyme inactivation was observed
7 | C=CC(=O)NCCC[C@H](NC(=O)OCc1ccccc1)C(=O)N1CCN(S(=O)(=O)c2cccc3c(N(C)C)cccc23)CC1 [Compound 117, (S)-benzyl (5-acrylamido-1-(4-((5-(dimethylamino)naphthalen-1-yl)sulfonyl)piperazin-1-yl)-1-oxopentan-2-yl)carbamate] | 0.0134 | 1480 | 69 to 70 |  |  | kinact (TG2 [2]; Table 6, read-out: kinact (converted)): 0.0197 s⁻¹; enzyme inactivation, relative observed rate constants (kobs) (TG2 [2]): reappearance of enzyme inhibition albeit only modestly; kinact/KI (TG2 [2]; Table 6): 412 M⁻¹ s⁻¹
8 | C=CC(=O)NCCCC[C@H](NC(=O)OCc1ccccc1)C(=O)N1CCN(S(=O)(=O)c2cccc3ccccc23)CC1 [Compound 128, (S)-benzyl 6-acrylamido-1-(4-(naphthalen-1-ylsulfonyl)piperazin-1-yl)-1-oxohexan-2-yl-carbamate] | 0.0082 | 2130 | 59 to 61 | 0.0065 | 620 | rate constant of inactivation relative to VA4 (TG2 [2]): more than three-fold less
9 | C=CC(=O)NCCCC[C@H](NC(=O)OCc1ccccc1)C(=O)N1CCN(S(=O)(=O)c2ccc3ccccc3c2)CC1 [Compound 129, (S)-benzyl (6-acrylamido-1-(4-(naphthalen-2-ylsulfonyl)piperazin-1-yl)-1-oxohexan-2-yl)-carbamate] | 0.00643 | 2500 | 65 to 66 | 0.00633 | 955 | 
10 | C=CC(=O)NCCCC[C@H](NC(=O)OCc1ccccc1)C(=O)N1CCN(S(=O)(=O)c2ccccc2)CC1 [Compound 130, (S)-benzyl (6-acrylamido-1-oxo-1-(4-(phenylsulfonyl)piperazin-1-yl)hexan-2-yl)carbamate] | 0.0102 | 2180 |  | 0.00783 | 888 | 
11 | C=CC(=O)NCCCC[C@H](NC(=O)OCc1ccccc1)C(=O)N1CCN(S(=O)(=O)Cc2ccccc2)CC1 [Compound 131, (S)-benzyl (6-acrylamido-1-(4-(benzylsulfonyl)piperazin-1-yl)-1-oxohexan-2-yl)carbamate] | 0.00907 | 1900 | 50 to 52 | 0.00783 | 582 | 
12 | C=CC(=O)NCCCC[C@H](NC(=O)OCc1ccccc1)C(=O)N1CCN(S(=O)(=O)C2CCCCC2)CC1 [Compound 132, (S)-benzyl (6-acrylamido-1-(4-(cyclohexylsulfonyl)piperazin-1-yl)-1-oxohexan-2-yl)carbamate] | 0.0083 | 2430 |  | 0.0115 | 1050 | 
13 | C=CC(=O)NCCCC[C@H](NC(=O)OCc1ccccc1)C(=O)N1CCN(S(=O)(=O)CC)CC1 [Compound 134, (S)-benzyl (6-acrylamido-1-(4-(ethylsulfonyl)piperazin-1-yl)-1-oxohexan-2-yl)carbamate] |  |  |  | 0.0237 | 657 | 
14 | C=CC(=O)NCCCC[C@H](NC(=O)OCc1ccccc1)C(=O)N1CCN(S(C)(=O)=O)CC1 [Compound 135, (S)-benzyl(6-acrylamido-1-(4-(methylsulfonyl)piperazin-1-yl)-1-oxohexan-2-yl)carbamate] | 0.0153 | 2730 |  | 0.00833 | 1310 | 
15 | C=CC(=O)NCCCC[C@H](NC(=O)OCc1ccccc1)C(=O)N1CCN(S(=O)(=O)c2cccs2)CC1 [Compound 136, (S)-benzyl(6-acrylamido-1-oxo-1-(4-(thiophen-2-ylsulfonyl)piperazin-1-yl)hexan-2-yl)carbamate] |  |  |  | 0.0247 | 613 | 
16 | C=CC(=O)NCCC[C@H](NC(=O)OCc1ccccc1)C(=O)N1CCN(C(=O)c2ccccc2)CC1 [Compound 149, (S)-benzyl (5-acrylamido-1-(4-benzoylpiperazin-1-yl)-1-oxopentan-2-yl)carbamate] |  |  |  |  |  | kinact (TG2 [2]; [3]): 0.0795 s⁻¹; kinact/KI (TG2 [2]; Table 8): 2170 M⁻¹ s⁻¹
17 | C=CC(=O)NCCCC[C@H](NC(=O)OCc1ccccc1)C(=O)N1CCN(C(=O)Cc2ccccc2)CC1 [Compound 150, (S)-benzyl (6-acrylamido-1-oxo-1-(4-(2-phenylacetyl)piperazin-1-yl)hexan-2-yl)carbamate] |  |  | 48 to 49 |  |  | kinact (TG2 [2]; [3]): 0.0377 s⁻¹; kinact/KI (TG2 [2]; Table 8): 1880 M⁻¹ s⁻¹
18 | C=CC(=O)NCCC[C@H](NC(=O)OCc1ccccc1)C(=O)N1CCN(C(C)=O)CC1 [Compound 151, (S)-benzyl(1-(4-acetylpiperazin-1-yl)-5-acrylamido-1-oxopentan-2-yl)carbamate] |  |  |  |  |  | kinact (TG2 [2]; [3]): 0.0343 s⁻¹; overall inhibition efficiency compared to sulfonamide counterpart (TG2 [2]; amide (Table 8) vs sulfonamide (Table 7)): almost three times less; kinact/KI (TG2 [2]; Table 8): 615 M⁻¹ s⁻¹
19 | C=CC(=O)NCCCC[C@H](NC(=O)OCc1ccccc1)C(=O)N1CCN(C(=O)c2ccccn2)CC1 [Compound 152, (S)-benzyl(6-acrylamido-1-oxo-1-(4-picolinoylpiperazin-1-yl)hexan-2-yl)carbamate] |  |  |  |  |  | kinact (TG2 [2]; Table 8): 0.0488 ± 0.00483 s⁻¹; kinact/KI (10^3M^−1 min^−1) (TG2 [2]; Table 8): 91.3 ± 17.9 10^3M^−1 min^−1
20 | C=CC(=O)NCCCC[C@H](NC(=O)OCc1ccccc1)C(=O)N1CCN(C(=O)c2cccnc2)CC1 [Compound 153, (S)-benzyl (6-acrylamido-1-(4-nicotinoylpiperazin-1-yl)-1-oxohexan-2-yl)carbamate] |  |  |  |  |  | kinact (TG2 [2]; [3]): 0.024 s⁻¹; kinact/KI (TG2 [2]; Table 8): 1020 M⁻¹ s⁻¹
21 | C=CC(=O)NCCCC[C@H](NC(=O)OCc1ccccc1)C(=O)N1CCN(C(=O)c2ccncc2)CC1 [Compound 154, (S)-benzyl-(6-acrylamido-1-(4-isonicotinoylpiperazin-1-yl)-1-oxohexan-2-yl)carbamate] |  |  |  |  |  | kinact (TG2 [2]; [3]): 0.0238 s⁻¹; kinact/KI (TG2 [2]; Table 8): 617 M⁻¹ s⁻¹
